In ChEMBL document CHEMBL6115023, “Design and biochemical evaluation of 2-cyclopropyl-thioureidobenzamide (CP-TBA) derivatives as potent HBV capsid assembly modulators targeting a novel binding site” (Eur J Med Chem, 2025):
Activity calls are given as the source filed them. No cut-off for these calls is given here.

Columns and labels:
[1] = Selectivity index, ratio of CC50 for human HepAD38 cells to IC50 for antiviral activity against HBV gene expressed in human HepAD38 cells assessed as inhibition of HBV DNA replication; type: toxicity, cell-based; details: read-out: Selectivity Index
Hepatitis B virus [2] = assay: Antiviral activity against HBV gene expressed in human HePAD38 cells assessed as inhibition of HBV DNA replication by quantitative PCR analysis; type: functional, organism-based
[3] = Cytotoxicity against human HepAD38 cells measured after 72 hrs by CCK-8 assay; type: toxicity, cell-based
[4] = Half life in Sprague-Dawley rat at 20 mg/kg, po measured upto 24 hrs by LC-MS/MS analysis; type: ADME, organism-based; details: in vivo
[5] = Cytotoxicity against human HLCZ01 cells assessed as cell viability measured after 72 hrs by CCK-8 assay; type: toxicity, cell-based
[6] = Stability in human plasma assessed as half life by LC-MS/MS analysis; type: ADME, cell-free
[7] = Half life in Sprague-Dawley rat at 2 mg/kg, iv measured upto 24 hrs by LC-MS/MS analysis; type: ADME, organism-based; details: in vivo
Hepatitis B virus [8] = assay: Antiviral activity against HBV infected in human HLCZ01 cells assessed as inhibition of HBV replication by measuring HBsAg treated for 6 days by ELISA; type: functional, organism-based; details: time 6.0 day
[9] = Clearance in Sprague-Dawley rat at 2 mg/kg, iv measured upto 24 hrs by LC-MS/MS analysis; type: ADME, organism-based; details: in vivo
[10] = MRT (0 to t) in Sprague-Dawley rat at 20 mg/kg, po measured upto 24 hrs by LC-MS/MS analysis; type: ADME, organism-based; details: in vivo
[11] = Metabolic stability in human liver microsomes assessed as intrinsic clearance (liver) upto 60 mins by LC-MS/MS analysis; type: ADME, Microsome; details: read-out: CLH
[12] = Stability in human plasma assessed as compound remaining measured after 10 mins by LC-MS/MS analysis; type: ADME, cell-free; details: read-out: Stability
[13] = AUC (0 to infinitive) in Sprague-Dawley rat at 2 mg/kg, iv measured upto 24 hrs by LC-MS/MS analysis; type: ADME, organism-based; details: in vivo
[14] = MRT (0 to t) in Sprague-Dawley rat at 2 mg/kg, iv measured upto 24 hrs by LC-MS/MS analysis; type: ADME, organism-based; details: in vivo
Hepatitis B virus [15] = assay: In vivo antiviral activity against HBV infected male C57BL/6J mouse by hydrodynamic injection (HDI) of pAAV-HBV1.2 assessed as decrease in HBV DNA in serum at 5 mg/kg/day, po measured after 20 days by qPCR analysis; type: functional, organism-based; details: time 20.0 day
[16] = Metabolic stability in human liver microsomes assessed as half life by LC-MS/MS analysis; type: ADME, Microsome
[17] = MRT (0 to infinity) in Sprague-Dawley rat at 2 mg/kg, iv measured upto 24 hrs by LC-MS/MS analysis; type: ADME, organism-based; details: in vivo
[18] = Tmax in Sprague-Dawley rat at 20 mg/kg, po measured upto 24 hrs by LC-MS/MS analysis; type: ADME, organism-based; details: in vivo
[19] = AUC (0 to infinity) in Sprague-Dawley rat at 20 mg/kg, po measured upto 24 hrs by LC-MS/MS analysis; type: ADME, organism-based; details: in vivo
[20] = Stability in human plasma assessed as compound remaining measured after 120 mins by LC-MS/MS analysis; type: ADME, cell-free; details: read-out: Stability
[21] = Stability in human plasma assessed as compound remaining measured immediately by LC-MS/MS analysis; type: ADME, cell-free; details: read-out: Stability
[22] = AUC (0 to t) in Sprague-Dawley rat at 2 mg/kg, iv measured upto 24 hrs by LC-MS/MS analysis; type: ADME, organism-based; details: in vivo
[23] = Lipophilic-hydrophilic partition coefficient logP of compound; type: physicochemical; details: octanol/water
[24] = Volume of distribution at steady state in Sprague-Dawley rat at 2 mg/kg, iv measured upto 24 hrs by LC-MS/MS analysis; type: ADME, organism-based; details: in vivo, read-out: Vdss
[25] = Metabolic stability in human liver microsomes assessed as compound remaining after 60 mins in absence of NADPH (NCF) by LC-MS/MS analysis; type: ADME, Microsome; details: read-out: Stability
[26] = AUC (0 to t) in Sprague-Dawley rat at 20 mg/kg, po measured upto 24 hrs by LC-MS/MS analysis; type: ADME, organism-based; details: in vivo
[27] = Stability in human plasma assessed as compound remaining measured after 60 mins by LC-MS/MS analysis; type: ADME, cell-free; details: read-out: Stability
[28] = Selectivity index, ratio of CC50 for human HLCZ01 cells to IC50 for antiviral activity against HBV infected in human HLCZ01 cells assessed as inhibition of HBV replication by measuring HBV DNA treated for 6 days by qPCR analysis; type: toxicity, cell-based; details: time 6 day, read-out: Selectivity Index
[29] = Stability in human plasma assessed as compound remaining measured after 30 mins by LC-MS/MS analysis; type: ADME, cell-free; details: read-out: Stability
[30] = MRT (0 to infinity) in Sprague-Dawley rat at 20 mg/kg, po measured upto 24 hrs by LC-MS/MS analysis; type: ADME, organism-based; details: in vivo
Hepatitis B virus [31] = assay: Antiviral activity against HBV infected in human HLCZ01 cells assessed as inhibition of HBV replication by measuring HBV DNA treated for 6 days by qPCR analysis; type: functional, organism-based; details: HLCZ01, 144 h
[32] = Metabolic stability in human liver microsomes assessed as intrinsic clearance measured per mg of microsomal protein upto 60 mins by LC-MS/MS analysis; type: ADME, Microsome; details: read-out: CLH
[33] = Cmax in Sprague-Dawley rat at 20 mg/kg, po measured upto 24 hrs by LC-MS/MS analysis; type: ADME, organism-based; details: in vivo
[34] = Oral bioavailability in Sprague-Dawley rat at 2 mg/kg, iv measured upto 24 hrs by LC-MS/MS analysis; type: ADME, organism-based; details: in vivo
[35] = Metabolic stability in human liver microsomes assessed as compound remaining after 60 mins in presence of NADPH by LC-MS/MS analysis; type: ADME, Microsome; details: read-out: Stability

## O=C(Nc1cc(F)c(F)c(F)c1)c1cc(NC(=S)NC2CCCC2)c(F)cc1C1CC1
[1]
  selectivity ratio: 179
Hepatitis B virus [2]
  EC50: 0.026 µM
[3]
  CC50 at 72 h: 4.66 µM

## CC(NC(=S)Nc1cc(C(=O)Nc2cc(F)c(F)c(F)c2)c(C2CC2)cc1F)C(F)(F)F (stereo unspecified)
[1]
  selectivity ratio: 133
Hepatitis B virus [2]
  EC50: 0.029 µM
[3]
  CC50 at 72 h: 3.86 µM

## O=C(Nc1cc(F)c(F)c(F)c1)c1cc(S(=O)(=O)NC2CCCC2)c(F)cc1-c1cccs1
[1]
  selectivity ratio: 3.75
Hepatitis B virus [2]
  EC50: 4 µM
[3]
  CC50 at 72 h: 15 µM

## O=C(Nc1cc(F)c(F)c(F)c1)c1cc(S(=O)(=O)NC2CCC(O)CC2)c(F)cc1-c1ccccc1 (stereo unspecified)
[1]
  selectivity ratio: < 12.4
Hepatitis B virus [2]
  EC50: > 4 µM
[3]
  CC50 at 72 h: 49.7 µM

## O=C(Nc1cc(F)c(F)c(F)c1)c1cc(NC(=S)NC2CC2)c(F)cc1C1CC1
[1]
  selectivity ratio: > 500
Hepatitis B virus [2]
  EC50: 0.2 µM
[3]
  CC50 at 72 h: > 100 µM

## O=C(Nc1cc(F)c(F)c(F)c1)c1cc(S(=O)(=O)NC2CCC(O)CC2)c(F)cc1-c1ccsc1 (stereo unspecified)
[1]
  selectivity ratio: < 20.6
Hepatitis B virus [2]
  EC50: > 4 µM
[3]
  CC50 at 72 h: 82.4 µM

## O=C(Nc1cc(F)c(F)c(F)c1)c1cc(NC(=O)C2CCCC2)c(F)cc1C1CC1
[1]
  selectivity ratio: > 208
Hepatitis B virus [2]
  EC50: 0.48 µM
[3]
  CC50 at 72 h: > 100 µM

## CC(C)N(C)C(=S)Nc1cc(C(=O)Nc2cc(F)c(F)c(F)c2)c(C2CC2)cc1F
[4]
  half-life: 2.87 h
[5]
  CC50 at 72 h: 119 µM
[6]
  half-life: > 4.82 h
[7]
  half-life: 1.62 h
Hepatitis B virus [8]
  Activity: Active
[9]
  clearance: 28.2 mL/min/kg
[10]
  MRT last at 24 h: 4.35 h
[11]
  CLint scaled: 102 mL/min/kg
[12]
  remaining at 10 min: 97.5%
[13]
  AUC(0-inf): 1200 ng·h/mL
[14]
  MRT last at 24 h: 1.09 h
Hepatitis B virus [15]
  Activity: Active
[16]
  half-life: 0.205 h
[1]
  selectivity ratio: > 3030
[17]
  MRT inf: 1.24 h
[18]
  Tmax: 0.67 h
[19]
  AUC(0-inf): 3450 ng·h/mL
[20]
  remaining at 2 h: 82.3%
[21]
  remaining at 0 min: 100%
[22]
  AUC(0-t) at 24 h: 1180 ng·h/mL
[23]
  logP: > 5
[24]
  Vd: 2.1 L/kg
Hepatitis B virus [2]
  EC50: 0.033 µM
[25]
  remaining at 1 h: 99%
[26]
  AUC(0-t) at 24 h: 3440 ng·h/mL
[27]
  remaining at 1 h: 87.6%
[28]
  selectivity ratio at 144 h: 9920
[29]
  remaining at 0.5 h: 91.6%
[30]
  MRT inf: 4.42 h
[3]
  CC50 at 72 h: > 100 µM
Hepatitis B virus [31]
  EC50: 0.012 µM
[32]
  microsomal CLint: 113 µL/min/mg
[33]
  Cmax: 748 ng/mL
[34]
  bioavailability: 28.9%
[35]
  remaining at 1 h: 3.2%

## C=CCNC(=S)Nc1cc(C(=O)Nc2cc(F)c(F)c(F)c2)c(C2CC2)cc1F
[1]
  selectivity ratio: 151
Hepatitis B virus [2]
  EC50: 0.11 µM
[3]
  CC50 at 72 h: 16.7 µM

## O=C(Nc1cc(F)c(F)c(F)c1)c1cc(S(=O)(=O)NC2CCCC2)c(F)cc1-c1ccsc1
[1]
  selectivity ratio: < 0.29
Hepatitis B virus [2]
  EC50: > 4 µM
[3]
  CC50 at 72 h: 1.16 µM

## CCOC(=O)C1=C(CN2CCOCC2)NC(c2nccs2)=N[C@H]1c1ccc(F)cc1Br
Hepatitis B virus [2]
  EC50: 0.022 µM

## O=C(O)Cc1ccccc1Nc1c(Cl)cccc1Cl [DICLOFENAC]
[11]
  CLint scaled: 190 mL/min/kg
[16]
  half-life: 0.11 h
[32]
  microsomal CLint: 211 µL/min/mg

## COC(=O)/C=C/c1c(S(=O)(=O)N2CCOCC2)ccc(F)c1C(=O)Nc1cc(F)c(F)c(F)c1
Hepatitis B virus [2]
  EC50: > 4 µM
[3]
  CC50 at 72 h: > 100 µM

## CC(C)NC(=O)/C=C/c1c(S(=O)(=O)N2CCOCC2)ccc(F)c1C(=O)Nc1cc(F)c(F)c(F)c1
[1]
  selectivity ratio: < 6.04
Hepatitis B virus [2]
  EC50: > 4 µM
[3]
  CC50 at 72 h: 24.2 µM

## O=C(Nc1cc(F)c(F)c(F)c1)c1ccc(F)c(S(=O)(=O)N2CCC(O)CC2)c1
[1]
  selectivity ratio: 47.6

## N#Cc1ccc(C(=O)Nc2cc(C(=O)Nc3cc(F)c(F)c(F)c3)c(C3CC3)cc2F)cc1
[1]
  selectivity ratio: 10.7
Hepatitis B virus [2]
  EC50: 0.42 µM
[3]
  CC50 at 72 h: 4.5 µM

## O=C(Nc1cc(F)c(F)c(F)c1)c1cc(S(=O)(=O)NC2CCCC2)c(F)cc1C1CC1
[1]
  selectivity ratio: 52.3
Hepatitis B virus [2]
  EC50: 0.65 µM
[3]
  CC50 at 72 h: 34 µM

## CCNC(=S)Nc1cc(C(=O)Nc2cc(F)c(F)c(F)c2)c(C2CC2)cc1F
[1]
  selectivity ratio: 233
Hepatitis B virus [2]
  EC50: 0.091 µM
[3]
  CC50 at 72 h: 21.2 µM

## O=C(/C=C/c1c(S(=O)(=O)N2CCOCC2)ccc(F)c1C(=O)Nc1cc(F)c(F)c(F)c1)OCCO
Hepatitis B virus [2]
  EC50: > 4 µM
[3]
  CC50 at 72 h: > 100 µM

## CC(C)[N+](C)(CCOC(=O)C1c2ccccc2Oc2ccccc21)C(C)C.[Br-] [PROPANTHELINE BROMIDE]
[6]
  half-life: 0.162 h
[12]
  remaining at 10 min: 70.1%
[27]
  remaining at 1 h: 1.5%
[29]
  remaining at 0.5 h: 18.9%

## O=C(Nc1cc(F)c(F)c(F)c1)c1cc(NC(=O)C2CC2)c(F)cc1C1CC1
[1]
  selectivity ratio: 59.6
Hepatitis B virus [2]
  EC50: 1.48 µM
[3]
  CC50 at 72 h: 88.2 µM

## O=C(Nc1cc(F)c(F)c(F)c1)c1cc(S(=O)(=O)NC2CCC(O)CC2)c(F)cc1-c1ccc2c(c1)OCO2 (stereo unspecified)
[1]
  selectivity ratio: < 20.6
Hepatitis B virus [2]
  EC50: > 4 µM
[3]
  CC50 at 72 h: 82.4 µM

## CC(C)NC(=S)Nc1cc(C(=O)Nc2cc(F)c(F)c(F)c2)c(C2CC2)cc1F
[1]
  selectivity ratio: 510
Hepatitis B virus [2]
  EC50: 0.033 µM
[3]
  CC50 at 72 h: 16.8 µM

## O=C(Nc1cc(C(=O)Nc2cc(F)c(F)c(F)c2)c(C2CC2)cc1F)c1cccs1
[1]
  selectivity ratio: 41.8
Hepatitis B virus [2]
  EC50: 0.5 µM
[3]
  CC50 at 72 h: 20.9 µM

## C[C@]12CC[C@H]3[C@@H](CCC4=CC(=O)CC[C@@]43C)[C@@H]1CC[C@@H]2O [TESTOSTERONE]
[11]
  CLint scaled: 67 mL/min/kg
[32]
  microsomal CLint: 74.5 µL/min/mg
